Numbers after ± are expanded uncertainties.
Experiment: molar heat capacity at constant volume; xn = mol fraction of the nth substance listed
Details: x1 = 0.2607

SMILES: N [ammonia] + O
- molar heat capacity at constant volume (597.59 K, Fluid (supercritical or subcritical phases), Mass density=342.18 kg/m3, isochoric heat capacity): 106.69 ± 4.3 J/K/mol
- molar heat capacity at constant volume (597.6 K, Fluid (supercritical or subcritical phases), Mass density=160.07 kg/m3, isochoric heat capacity): 66.86 ± 2.7 J/K/mol
- molar heat capacity at constant volume (597.67 K, Fluid (supercritical or subcritical phases), Mass density=342.18 kg/m3, isochoric heat capacity): 101.08 ± 4 J/K/mol
- molar heat capacity at constant volume (597.68 K, Fluid (supercritical or subcritical phases), Mass density=376.89 kg/m3, isochoric heat capacity): 88.28 ± 3.5 J/K/mol
- molar heat capacity at constant volume (597.69 K, Fluid (supercritical or subcritical phases), Mass density=160.07 kg/m3, isochoric heat capacity): 65.49 ± 2.6 J/K/mol
- molar heat capacity at constant volume (597.76 K, Fluid (supercritical or subcritical phases), Mass density=342.18 kg/m3, isochoric heat capacity): 93.62 ± 3.7 J/K/mol
- molar heat capacity at constant volume (597.85 K, Fluid (supercritical or subcritical phases), Mass density=342.18 kg/m3, isochoric heat capacity): 99.13 ± 4 J/K/mol
- molar heat capacity at constant volume (597.93 K, Fluid (supercritical or subcritical phases), Mass density=342.18 kg/m3, isochoric heat capacity): 94.33 ± 3.8 J/K/mol
- molar heat capacity at constant volume (597.93 K, Fluid (supercritical or subcritical phases), Mass density=376.89 kg/m3, isochoric heat capacity): 82.42 ± 3.3 J/K/mol
- molar heat capacity at constant volume (598.02 K, Fluid (supercritical or subcritical phases), Mass density=342.18 kg/m3, isochoric heat capacity): 93.02 ± 3.7 J/K/mol
- molar heat capacity at constant volume (598.28 K, Fluid (supercritical or subcritical phases), Mass density=376.89 kg/m3, isochoric heat capacity): 83.59 ± 3.3 J/K/mol
- molar heat capacity at constant volume (598.33 K, Fluid (supercritical or subcritical phases), Mass density=329 kg/m3, isochoric heat capacity): 117.38 ± 4.8 J/K/mol
- molar heat capacity at constant volume (598.33 K, Liquid, Isochoric heat capacity): 117.38 ± 4.7 J/K/mol
- molar heat capacity at constant volume (598.45 K, Fluid (supercritical or subcritical phases), Mass density=329 kg/m3, isochoric heat capacity): 113.21 ± 4.6 J/K/mol
- molar heat capacity at constant volume (598.54 K, Fluid (supercritical or subcritical phases), Mass density=329 kg/m3, isochoric heat capacity): 109.57 ± 4.4 J/K/mol
- molar heat capacity at constant volume (598.71 K, Fluid (supercritical or subcritical phases), Mass density=329 kg/m3, isochoric heat capacity): 102.77 ± 4.1 J/K/mol
- molar heat capacity at constant volume (598.96 K, Fluid (supercritical or subcritical phases), Mass density=320.33 kg/m3, isochoric heat capacity): 120.79 ± 4.8 J/K/mol
- molar heat capacity at constant volume (598.96 K, Liquid, Isochoric heat capacity): 120.79 ± 4.8 J/K/mol
- molar heat capacity at constant volume (598.97 K, Fluid (supercritical or subcritical phases), Mass density=376.89 kg/m3, isochoric heat capacity): 81.57 ± 3.3 J/K/mol
- molar heat capacity at constant volume (598.98 K, Fluid (supercritical or subcritical phases), Mass density=160.07 kg/m3, isochoric heat capacity): 58.27 ± 2.3 J/K/mol
- molar heat capacity at constant volume (599.05 K, Fluid (supercritical or subcritical phases), Mass density=320.33 kg/m3, isochoric heat capacity): 119.07 ± 4.8 J/K/mol
- molar heat capacity at constant volume (599.05 K, Fluid (supercritical or subcritical phases), Mass density=329 kg/m3, isochoric heat capacity): 107.4 ± 4.3 J/K/mol
- molar heat capacity at constant volume (599.12 K, Fluid (supercritical or subcritical phases), Mass density=160.07 kg/m3, isochoric heat capacity): 56.88 ± 2.3 J/K/mol
- molar heat capacity at constant volume (599.14 K, Fluid (supercritical or subcritical phases), Mass density=320.33 kg/m3, isochoric heat capacity): 116.6 ± 4.7 J/K/mol
- molar heat capacity at constant volume (599.22 K, Fluid (supercritical or subcritical phases), Mass density=320.33 kg/m3, isochoric heat capacity): 116.48 ± 4.7 J/K/mol
- molar heat capacity at constant volume (599.22 K, Fluid (supercritical or subcritical phases), Mass density=329 kg/m3, isochoric heat capacity): 100.28 ± 4 J/K/mol
- molar heat capacity at constant volume (599.24 K, Fluid (supercritical or subcritical phases), Mass density=160.07 kg/m3, isochoric heat capacity): 59.53 ± 2.4 J/K/mol
- molar heat capacity at constant volume (599.28 K, Fluid (supercritical or subcritical phases), Mass density=160.07 kg/m3, isochoric heat capacity): 57.43 ± 2.3 J/K/mol
- molar heat capacity at constant volume (599.31 K, Fluid (supercritical or subcritical phases), Mass density=320.33 kg/m3, isochoric heat capacity): 114.22 ± 4.6 J/K/mol
- molar heat capacity at constant volume (599.31 K, Fluid (supercritical or subcritical phases), Mass density=329 kg/m3, isochoric heat capacity): 97.19 ± 4 J/K/mol
- molar heat capacity at constant volume (599.31 K, Fluid (supercritical or subcritical phases), Mass density=456.58 kg/m3, isochoric heat capacity): 67.32 ± 2.7 J/K/mol
- molar heat capacity at constant volume (599.39 K, Fluid (supercritical or subcritical phases), Mass density=320.33 kg/m3, isochoric heat capacity): 116.94 ± 4.7 J/K/mol
- molar heat capacity at constant volume (599.42 K, Fluid (supercritical or subcritical phases), Mass density=312.91 kg/m3, isochoric heat capacity): 124.13 ± 5.3 J/K/mol
- molar heat capacity at constant volume (599.42 K, Liquid, Isochoric heat capacity): 124.13 ± 5 J/K/mol
- molar heat capacity at constant volume (599.48 K, Fluid (supercritical or subcritical phases), Mass density=312.91 kg/m3, isochoric heat capacity): 116.5 ± 4.8 J/K/mol
- molar heat capacity at constant volume (599.48 K, Fluid (supercritical or subcritical phases), Mass density=456.58 kg/m3, isochoric heat capacity): 66.88 ± 2.7 J/K/mol
- molar heat capacity at constant volume (599.57 K, Fluid (supercritical or subcritical phases), Mass density=311.19 kg/m3, isochoric heat capacity): 125.38 ± 5.1 J/K/mol
- molar heat capacity at constant volume (599.57 K, Fluid (supercritical or subcritical phases), Mass density=312.91 kg/m3, isochoric heat capacity): 107.92 ± 4.4 J/K/mol
- molar heat capacity at constant volume (599.57 K, Liquid, Isochoric heat capacity): 125.38 ± 5 J/K/mol
- molar heat capacity at constant volume (599.63 K, Fluid (supercritical or subcritical phases), Mass density=311.19 kg/m3, isochoric heat capacity): 116.92 ± 4.7 J/K/mol

Source: the NIST ThermoML archive (doi:10.1007/s10765-009-0602-6)
